Where two headings read alike, the source gives them in different places.
How the values were obtained:
[1] = tested on: Plasmodium falciparum (NF54); test: In vitro antimalarial activity, [3H]hypoxanthine incorporation into chloroquine-sensitive P. falciparum (NF 54); assay type: cell-based
Protocol: the protozoan Plasmodium falciparum is a causative agent of malaria. The antimalarial activity of 2,3-dioxabicyclo[3.3.1]nonanes of type A was determined by measuring the incorporation of [^3 H]hypoxanthine, by the methods of Desjardins^9 and Milhous,^10 into […] Plasmodium falciparum (NF54)^11 in the presence of varying drug concentrations. Dose-response response curves that were fit to the experimental data by means of the Marquardt algorithm^12 were solved for the drug concentration that kills 50% of parasites (IC50), and were analyzed for accuracy of fit (R^2 value, typically ≥0.99). Provisional IC50 values were obtained in a survey of seven 5-fold dilutions (in triplicate) of stock solutions of chromatographically-purified or recrystalized test compound. Assay were later expanded to include ten concentrations (in quadruplicate) of ~1.8-fold dilutions, which flank the provisional IC50.
Tables 1-3 present tabulations of a number of compounds that have been synthesized along with the IC50 (in nM).

[2] = tested on: Plasmodium falciparum (NF54); conditions: recorded under the same conditions; cited from earlier work
[3] = tested on: Plasmodium berghei (N strain); design: ED90: unit not given beside the values; ED50: unit not given here; conditions: against P. berghei; cited from earlier work
[4] = tested on: Plasmodium yoelii (ssp. NS); design: ED90: unit not given beside the values; ED50: unit not given here; conditions: against P. yoelii; cited from earlier work
[5] = tested on: mouse neuroblastoma cells; conditions: cited from earlier work
[6] = rats, high doses; cited from earlier work
[7] = tested on: Plasmodium berghei (N strain); test: In vivo antimalarial activity against chloroquine-sensitive Plasmodium berghei (N strain), four-day test in mice; conditions: sc, P. berghei (N strain), subcutaneous, daily dose, fourday test
Protocol: (§1) Based on the in vitro antimalarial activity of compounds of type A, the in vivo antimalarial activity of two representatives, namely of compounds 23a and 34a, were tested.
(§2) *ED50 and ED90 are given as the daily dose in mg/Kg, repeated
(§3) every 4 days. Substances were administered to mice subcutaneously and
(§4) tested by the fourday test.^14,15

[8] = tested on: Plasmodium yoelii (ssp. NS); test: In vivo antimalarial activity against chloroquine-resistant Plasmodium yoelii (ssp. NS), four-day test in mice; conditions: sc, P. yoelii (ssp. NS), subcutaneous, daily dose, fourday test
Protocol: as §1, §2, §3, §4

[9] = cited from earlier work
[10] = Plasmodium falciparum, NF54, Expansion data (ten concentrations, quadruplicate, ~1.8-fold dilutions)
[11] = Plasmodium falciparum, NF54, Survey data (provisional; seven 5-fold dilutions in triplicate)

C[C@@]1(OC/C=C/c2ccccc2)CC[C@@H]2C[C@H]1OO[C@@]2(C)CS(=O)(=O)c1ccccc1 [Compound 36a, (1R,4R,5R,8R)-8-(trans-cinnamyloxy)-4,8-dimethyl-4-phenylsulfonylmethyl-2,3-dioxabicyclo[3.3.1]nonane]
IC50 [1, 10]: 32 nM

CCOC(=O)C(=O)O[C@]1(C)CC[C@@H]2C[C@H]1OO[C@]2(C)CS(=O)(=O)c1ccccc1 [Compound 25b, (1R,4S,5R,8R)-8-ethoxyoxalyloxy-4,8-dimethyl-4-phenylsulfonylmethyl-2,3-dioxabicyclo [3.3.1]nonane]
IC50 [1, 10]: 140 nM

CCCCS(=O)(=O)C[C@@]1(C)OO[C@H]2C[C@@H]1C[C@H](OC(=O)c1ccccc1)[C@]2(C)O [Compound 30a, (1S,4S,5S,7S,8S)-7-benzoyloxy-4-n-butylsulfonylmethyl-4,8-dimethyl-2,3-dioxabicyclo[3.3.1]nonan-8-ol]
IC50 [1, 11]: 300 nM

C[C@]1(CS(=O)(=O)c2ccccc2)OO[C@@H]2C[C@H]1CC[C@@]2(C)O [Compound 21b, (1R,4S,5R,8R)-4,8-dimethyl-4-phenylsulfonylmethyl-2,3-dioxabicyclo[3.3.1]nonan-8-ol]
IC50 [1, 10]: 89 nM

C[C@@H]1CC[C@H]2[C@@H](C)C(=O)O[C@@H]3O[C@@]4(C)CC[C@@H]1[C@]32OO4 [artemisinin]
IC50 [2]: 11 nM | ED50 [3]: 0.95 | ED90 [3]: 2.5 | ED50 [4]: 5.8 | ED90 [4]: 10.0

CCOC(=O)C(=O)O[C@]1(C)CC[C@@H]2C[C@H]1OO[C@@]2(C)CS(=O)(=O)c1ccccc1 [Compound 25a, (1R,4R,5R,8R)-8-ethoxyoxyalyloxy-4,8-dimethyl-4-phenylsulfonylmethyl-2,3-dioxabicyclo [3.3.1]nonane]
IC50 [1, 10]: 170 nM

C[C@@]1(OC(=O)Oc2ccccc2)CC[C@@H]2C[C@H]1OO[C@@]2(C)CS(=O)(=O)c1ccccc1 [Compound 27a, (1R,4R,5R,8R)-4,8-dimethyl-8-phenoxycarbonyloxy-4-phenylsulfonylmethyl-2,3-dioxabicyclo[3.3.1]nonane]
IC50 [1, 10]: 47 nM

C[C@@H]1CC[C@H]2[C@@H](C)C(O)O[C@@H]3O[C@@]4(C)CC[C@@H]1[C@]32OO4 (stereo partly shown) [dihydroarte-mesinin]
neurotoxicity [5]: neurotoxicity has been seen

C[C@@]1(O)[C@@H]2C[C@H](C[C@@H]1OC(=O)c1ccccc1)[C@@](C)(CS(=O)(=O)c1ccccc1)OO2 [Compound 29a, (1S,4S,5S,7S,8S)-7-benzoyloxy-4,8-dimethyl-4-phenylsulfonylmethyl-2,3-dioxabicyclo[3.3.1]nonan-8-ol]
IC50 [1, 11]: 250 nM

CO[C@H]1O[C@@H]2O[C@@]3(C)CC[C@H]4[C@H](C)CC[C@@H]([C@H]1C)[C@@]24OO3 [artemether]
neurotoxicity [6]: neurotoxicity has been seen

C[C@]1(CSc2ccccc2)OOC2C[C@@H]1C[C@H](OC(=O)c1ccccc1)[C@]2(C)O (stereo in doubt) [Compound 4a, (1R,4S,5S,7S,8S)-7-benzoyloxy-4,8-dimethyl-4-phenylthiomethyl-2,3-dioxabicyclo[3.3.1]nonan-8-ol]
IC50 [1, 11]: 110 nM

CC(=O)O[C@]1(C)CC[C@@H]2C[C@H]1OO[C@]2(C)CS(=O)(=O)c1ccccc1 [Compound 23b, (1R,4S,5R,8R)-8-acetoxy-4,8-dimethyl-4-phenylsulfonylmethyl-2,3-dioxabicyclo[3.3.1]nonane]
IC50 [1, 10]: 17 nM

CC(=O)O[C@]1(C)CC[C@@H]2C[C@H]1OO[C@]2(C)C[S+]([O-])c1ccccc1 (stereo partly drawn) [Compound 41b, (1R,4S,5R,8R)-8-acetoxy-4,8-dimethyl-4-phenylsulfinylmethyl-2,3-dioxabicyclo[3.3.1]nonanes]
IC50 [1, 10]: 71 nM

C[C@@]12O[C@@H]1C[C@@H]1C[C@H]2OO[C@@]1(C)CS(=O)(=O)c1ccccc1 [Compound 39a, (1R,4R,5R,7R,8R)-7,8-epoxy-4,8-dimethyl-4-phenylsulfonylmethyl-2,3-dioxabicyclo[3.3.1]nonane]
IC50 [1, 10]: 92 nM

CC(C)=CCO[C@]1(C)CC[C@@H]2C[C@H]1OO[C@@]2(C)CS(=O)(=O)c1ccccc1 [Compound 35a, (1R,4R,5R,8R)-4,8-dimethyl-8-(γ,γ-dimethylallyloxy)-4-phenylsulfonylmethyl-2,3dioxabicyclo[3.3.1]nonane]
IC50 [1, 10]: 35 nM

C[C@@]1(OC(=O)C(=O)N(Cc2ccccc2)Cc2ccccc2)CC[C@@H]2C[C@H]1OO[C@@]2(C)CS(=O)(=O)c1ccccc1 [Compound 26a, (1R,4R,5R,8R)-8-dibenzylaminooxalyloxy-4,8-dimethyl-4-phenylsulfonylmethyl-2,3-dioxabicyclo[3.3.1]nonane]
IC50 [1, 10]: 21 nM

C[C@]1(CS(=O)(=O)c2ccccc2)OO[C@@H]2C[C@H]1CC[C@@]2(C)OC(=O)Oc1ccccc1 [Compound 27b, (1R,4S, 5R,8R)-4,8-dimethyl-8-phenoxycarbonyloxy-4-phenylsulfonylmethyl-2,3-dioxabicyclo[3.3.1]nonane]
IC50 [1, 10]: 150 nM

C[C@]1(CS(=O)(=O)c2ccccc2)OO[C@@H]2C[C@H]1CC[C@@]2(C)OC(=O)C(=O)N(Cc1ccccc1)Cc1ccccc1 [Compound 26b, (1R,4S,5R,8R)-dibenzylaminooxalyloxy-4,8-dimethyl-4-phenylsulfonylmethyl-2,3-dioxabicyclo[3.3.1]nonane]
IC50 [1, 10]: 81 nM

C[C@@]1(O)CC[C@@H]2C[C@H]1OO[C@@]2(C)CS(=O)(=O)c1ccccc1 [Compound 21a, (1R,4R,5R,8R)-4,8-dimethyl-4-phenylsulfonylmethyl-2,3-dioxabicyclo [3.3.1]nonan-8-ol]
IC50 [1, 10]: 55 nM

CC(=O)CC(=O)O[C@]1(C)CC[C@@H]2C[C@H]1OO[C@]2(C)CS(=O)(=O)c1ccccc1 [Compound 24b, (1R,4S,5R,8R)-8-acetylacetoxy-4,8-dimethyl-4-phenylsulfonylmethyl-2,3-dioxabicyclo [3.3.1]nonane]
IC50 [1, 10]: 73 nM

C[C@H]1CC[C@@H]2C[C@H]1OO[C@]2(C)CS(=O)(=O)c1ccccc1 [Compound 22b, (1R,4S,5R,8S)-4,8-dimethyl-4-phenylsulfonylmethyl-2,3-dioxabicyclo[3.3.1]nonane]
IC50 [1, 10]: 24 nM

CC1=CC[C@@H]2C[C@H]1OO[C@@]2(C)CS(=O)(=O)c1ccccc1 [Compound 37a, (1R,4R,5R)-4,8-dimethyl-4-phenylsulfonylmethyl-2,3-dioxabicyclo[3.3.1]non-7-ene]
IC50 [1, 11]: 490 nM

COc1ccc(CO[C@]2(C)CC[C@@H]3C[C@H]2OO[C@@]3(C)CS(=O)(=O)c2ccccc2)cc1 [Compound 34a, (1R,4R,5R,8R)-4,8-dimethyl-8-(p-methoxybenzyloxy)-4-phenylsulfonylmethyl-2,3-dioxabicyclo[3.3.1]nonane]
IC50 [1, 10]: 14 nM | ED50 [7]: 1.3 mg/kg | ED90 [7]: 2.3 mg/kg/day | ED50 [8]: 4.8 mg/kg | ED90 [8]: 8.3 mg/kg/day

C[C@@H]1C(=O)C[C@H]2C[C@@H]1OO[C@@]2(C)/C=C\c1ccc(C(F)(F)F)cc1C(F)(F)F [arteflene]
ED50 [3]: 2.7 | ED90 [3]: 3.9 | in vitro and in vivo antimalarial screening, clinical trials [9]: gave encouraging results

C[C@H]1CC[C@@H]2C[C@H]1OO[C@@]2(C)CS(=O)(=O)c1ccccc1 [Compound 22a, (1R,4R,5R,8S)-4,8-dimethyl-4-phenylsulfonylmethyl-2,3-dioxabicyclo [3.3.1]nonane]
IC50 [1, 10]: 17 nM

CC(=O)CC(=O)O[C@]1(C)CC[C@@H]2C[C@H]1OO[C@@]2(C)CS(=O)(=O)c1ccccc1 [Compound 24a, (1R,4R,5R,8R)-8-acetylacetoxy-4,8-dimethyl-4-phenylsulfonylmethyl-2,3-dioxabicyclo[3.3.1]nonane]
IC50 [1, 10]: 46 nM

CC(=O)O[C@]1(C)CC[C@@H]2C[C@H]1OO[C@@]2(C)C[S+]([O-])c1ccccc1 (stereo partly drawn) [Compound 41a, (1R,4R,5R,8R)-8-acetoxy-4,8-dimethyl-4-phenylsulfinylmethyl-2,3-dioxabicyclo[3.3.1]nonanes]
IC50 ([1]; Expansion data (ten concentrations, quadruplicate, ~1.8-fold dilutions)): 40 nM | IC50 ([1]; Expansion data (ten concentrations, quadruplicate, ~1.8-fold dilutions), listed as 41a'): 14 nM

CC(=O)O[C@]1(C)CC[C@@H]2C[C@H]1OO[C@@]2(C)CS(=O)(=O)c1ccccc1 [Compound 23a, (1R,4R,5R,8R)-8-acetoxy-4,8-dimethyl-4-phenylsulfonylmethyl-2,3-dioxabicyclo [3.3.1]nonane]
IC50 [1, 10]: 17 nM | ED50 [7]: 3.7 mg/kg | ED90 [7]: 7.3 mg/kg/day | ED50 [8]: 12.5 mg/kg | ED90 [8]: 28 mg/kg/day

Source: patent publication US6166065A, “2,3-dioxabicyclo[3.3.1]nonane derivatives and antimalarial pharmaceutical compositions comprising them” (Yeda Research and Development Co., Ltd., priority 1997, dated 2000)
